Test results: PMC2678990, “Stilbene glycosides are natural product inhibitors of FGF-2-induced angiogenesis” (BMC Cell Biology, 2009)

Key:
[1] = tested on: human dermal microvascular endothelial cells (HDMEC); assay: Proliferation without growth factors (15% FBS); format: cell-based
Method: (§1) Cells were seeded in triplicate at a concentration of 6.0 × 10^5/ml, in 2 ml of complete medium in 6-well plates. […] […] Control wells were treated with 5 μl DMSO. Concentration ranges of test compounds and pre-incubation times were based on pilot studies. After 72 h, cells were washed in PBS, detached in 0.05%w/v trypsin in PBS, and counted on a Coulter counter (Coulter Electronics, Hialeah, FL) set to a threshold of 30 μm. Experiments were performed in triplicate and repeated at least twice.

[2] = tested on: bovine aortic endothelial cells (BAEC); assay: Proliferation without growth factors (15% FBS); format: cell-based
Method: as §1

VEGF receptor = assay: ELISA binding assay of VEGF to soluble receptor; conditions: results not shown
Method: (§2) Competition between growth factors, their cell surface receptors and test compounds was assessed in an ELISA assay as described by. A 96-well plate was coated overnight with 2 μg/ml of the soluble receptors (FGFR-1 or -2 and VEGFR-1 or -2) and blocked with 1% BSA in PBS containing 0.05% Tween-20. The test compound and FGF-2 or VEGF were pre-mixed for 2 h and added to the plate and incubated for 2 h. The plate was washed (× 3 with PBS-Tween-20) and incubated with anti-FGF-2 IgG (1:500 in PBS-Tween-20) or anti-VEGF IgG (!:250 in PBS-Tween-20) for 45 min, washed and incubated with horseradish peroxidase conjugated goat anti-IgG (Santa Cruz, 1:1000) for a further 45 min. After washing (× 3), ABTS peroxidase substrate was added and the absorbance read at 405 nm. IC50 values were calculated from the data using the EZ-Fit enzyme kinetic software (Perella Scientific Inc., Amherst, USA).

HDMEC [3] = assay: Toxicity: MTT and active caspase-3 assays; format: cell-based, human
Method: Stilbene glycoside toxicity was determined using the MTT and active caspase-3 assays. BAECs or HDMECs (7.5 × 10^3) were seeded in a 96 well plate and incubated for 4 h to allow cell adhesion. The test compound or staurosporine (1 μM), an inducer of active caspase-3 and therefore of apoptosis was added to the wells. Control cells were treated with PBS and the plate was incubated at room temperature for 72 hours. MTT reagent (10 μl) was added followed by incubation at room temperature for 2–4 h. When a purple precipitate was visible, detergent reagent (100 μl) was added to the plates and incubated at room temperature for 2 h in the dark. Absorbance was measured at 570 nm using a microplate reader.
In the apoptosis assay, HDMECs or BAEC (4 × 10^4/ml) in complete medium were added to the chambers slide and allowed to adhere for 24 h. The test compound (X μM) or staurosporine (1 μM) were added to all wells except control (PBS) and incubated for 24 hours. Wells treated with staurosporine were immediately washed (PBS) and fixed (4% paraformaldehyde) when cell morphology became round (2–4 h). After washing and fixing, cells were permeablized (0.1% Triton X-100; 10 min), washed (× 5~5 min each), air dried and blocked with 1% BSA in 1:50 TBS-Tween for 1 h at room temperature. Cells were incubated with goat anti-active caspase-3 (R&D system, UK; 1% BSA in TBS-Tween) for 1 h. […]

BAEC = assay: FGF-2 invasion in Matrigel; format: cell-based, bovine; conditions: Bos taurus, FGF-2 25 ng/ml
Method: The effect of the test compounds on cell invasion was investigated using a Transwell Boyden chamber system coated with reconstituted growth factor-depleted Matrigel. […] Representative photomicrographs for the effect of compound 1 are shown (Figure 7B).
Figure 7 The effect of compounds 1 (AI) and 2 (AII) on BAEC invasion into a Matrigel layer was studied using the chemoinvasion assay described below. Cells (1.7 × 10^4) were added to the Matrigel coated upper Boyden chamber and the compounds with or without FGF-2 added to the lower chamber. Cell invasion was measured after 24 h and assessed as described below. […] Results are the mean of three experiments. (B) Representative photomicrographs are shown for the effect of compound 1 on BAEC (original magnification × 20).
The procedure described above was repeated and wells having a uniform network of tubes were used to assess invasion into a second layer of Matrigel. Matrigel (100 μl), with and without the test compounds was added to the cells and allowed to polymerise (1 h at 37°C). FCS (15%) was added and the cells incubated for 24–72 h when tube growth into the upper layer was measured as described above.

FGFR-2 (Homo sapiens) = tested on: T1, FGFR-2 (Homo sapiens); assay: ELISA binding assay of FGF-2 to soluble receptor; conditions: added together with FGF-2, no pre-incubation
T1 construct: coated overnight with 2 μg/ml of the soluble receptors (FGFR-1 or -2 and VEGFR-1 or -2); purchased Santa Cruz Biotechnology (receptor); R&D Systems (FGF-2)
Method: (§3) Figure 8 The effect of increasing concentrations of compound 1 on FGF-2 binding to FGFR-1 and -2. The soluble receptor was coated onto the wells of a 96-well plate and blocked with 1% BSA. […] After 2 h the plate was washed and incubated with antibodies to the growth factor, then peroxidase-conjugated IgG for 45 min. Peroxidase substrate was added and the absorbance read at 405 nm (se below for detail).
as §2, with “The test compound and FGF-2 or VEGF were pre-mixed for 2 h and added to the plate and incubated for 2 h.” left out

FGFR-1 (Homo sapiens) = tested on: T2, FGFR-1 (Homo sapiens); assay: ELISA binding assay of FGF-2 to soluble receptor; conditions: added together with FGF-2, no pre-incubation
T2 construct: coated overnight with 2 μg/ml of the soluble receptors (FGFR-1 or -2 and VEGFR-1 or -2); purchased Santa Cruz Biotechnology (receptor); R&D Systems (FGF-2)
Method: as §3
as §2, with “The test compound and FGF-2 or VEGF were pre-mixed for 2 h and added to the plate and incubated for 2 h.” left out

HDMEC [4] = assay: FGF-2-induced proliferation; format: cell-based; conditions: Homo sapiens, FGF-2 25 ng/ml, 72 h
Method: Cells were seeded in triplicate at a concentration of 6.0 × 10^5/ml, in 2 ml of complete medium in 6-well plates. […] Growth factors, FGF-2 (25 ng/ml), EGF (75 ng/ml) and VEGF (10 ng/ml) and test compounds at different concentration were added and cells incubated for a further 72 h. Control wells were treated with 5 μl DMSO. Concentration ranges of test compounds and pre-incubation times were based on pilot studies. After 72 h, cells were washed in PBS, detached in 0.05%w/v trypsin in PBS, and counted on a Coulter counter (Coulter Electronics, Hialeah, FL) set to a threshold of 30 μm. Experiments were performed in triplicate and repeated at least twice.

T2 sequence (P09038 143-288): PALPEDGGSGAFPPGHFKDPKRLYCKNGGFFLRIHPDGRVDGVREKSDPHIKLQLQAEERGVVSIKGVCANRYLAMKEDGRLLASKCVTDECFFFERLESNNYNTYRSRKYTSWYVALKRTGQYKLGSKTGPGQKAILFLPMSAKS
T1 sequence (P09038 143-288): as above

**Q.** Which results are given for `COc1cc(C=Cc2ccc(O)cc2)cc(OC2OC(COC3OC(C)C(O)C(O)C3O)C(O)C(O)C2OC2OC(C)C(O)C(O)C2O)c1` (stereo not shown) [Compound 1]?
**A.** Effect on growth in the absence of growth factors ([1]; 1.4–71.5 μM): no significant effect; IC50 ([1]; Homo sapiens, Endothelial cell, NS = overall inhibition less than 50%): > 71.5 µM; Effect on growth in the absence of growth factors ([2]; 1.4–71.5 μM): no significant effect; IC50 ([2]; Bos taurus, NS = overall inhibition less than 50%): > 71.5 µM; Effect on binding to the VEGF receptor (VEGF receptor): did not bind; Cytotoxic effect (HDMEC [3]): no significant cytotoxic effect; IC50 (BAEC): 11.1 ± 0.28 µM; Effect on FGF-2 binding to FGFR-2 when added with FGF-2 (FGFR-2 (Homo sapiens)): no significant inhibitory effect; Effect on FGF-2 binding to FGFR-1 when added with FGF-2 (FGFR-1 (Homo sapiens)): no significant inhibitory effect; IC50 (HDMEC [4]): 42 ± 0.93 µM
